Measurements as given in ChEMBL document CHEMBL1201862, “PubChem BioAssay data set” (2004).
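Five concentrations, 48 hours, 96-well plates. At the GI50, growth is halved.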 Activity calls are given as the source filed them. Rule as the data show it: active = GI50 up to about 1.1 µM and inactive = higher.

Assays:
Experiment in all cases: growth of human tumour cells (NCI), 48 h
[1] = system: SK-MEL-5
[2] = system: SK-OV-3
[3] = system: NCI/ADR-RES
[4] = system: MDA-MB-231
[5] = system: UACC-62
[6] = system: OVCAR-4
[7] = system: MCF7
[8] = system: HCC 2998
[9] = system: HL-60
[10] = system: M14
[11] = system: HCT-15
[12] = system: 786-0
[13] = system: RXF 393
[14] = system: ACHN
[15] = system: SF-539
[16] = system: MOLT-4
[17] = system: OVCAR-5
[18] = system: Malme-3M
[19] = system: LOX IMVI
[20] = system: IGROV-1

Compound | GI50 [1] | GI50 [2] | GI50 [3] | GI50 [4] | GI50 [5] | GI50 [6] | GI50 [7] | GI50 [8] | GI50 [9] | GI50 [10] | GI50 [11] [µM] | GI50 [12] | GI50 [13] | GI50 [14] | GI50 [15] | GI50 [16] | GI50 [17] | GI50 [18] | GI50 [19] | GI50 [20]
CC1=C(C2=C(C)C(=O)C(=O)c3cc(C)ccc32)c2ccc(C)cc2C(=O)C1=O | 0.206 µM (active) | 1.45 µM (inactive) | 0.274 µM (active) | 0.283 µM (active) | 0.191 µM (active) | 0.221 µM (active) | 0.218 µM (active) | 0.155 µM (active) | 0.0199 µM (active) | 0.182 µM (active) | 0.278 | 0.318 µM (active) | 0.234 µM (active) | 0.189 µM (active) | 0.182 µM (active) | 0.287 µM (active) | 0.199 µM (active) | 0.215 µM (active) | 0.207 µM (active) | 0.282 µM (active)
O=S1(=O)NC2CCC3NS(=O)(=O)NC4CCC(N1)N4S(=O)(=O)N23 (stereo not drawn) | > 100 µM (inactive) | > 100 µM (inactive) | > 100 µM (inactive) | > 100 µM (inactive) | > 100 µM (inactive) | > 100 µM (inactive) | > 100 µM (inactive) | > 100 µM (inactive) | > 100 µM (inactive) | > 100 µM (inactive) | > 100 | > 100 µM (inactive) | > 100 µM (inactive) | > 100 µM (inactive) | > 100 µM (inactive) | – | > 100 µM (inactive) | > 100 µM (inactive) | > 100 µM (inactive) | > 100 µM (inactive)
c1ccc(CN2CCc3[nH]c4ccccc4c3C2)cc1 | 16.9 µM (inactive) | 58.3 µM (inactive) | 36.1 µM (inactive) | 26.7 µM (inactive) | 26.1 µM (inactive) | 34.8 µM (inactive) | 17.1 µM (inactive) | 15.4 µM (inactive) | 17.6 µM (inactive) | 17.3 µM (inactive) | 25.9 | 22 µM (inactive) | 34.7 µM (inactive) | 33.9 µM (inactive) | 25 µM (inactive) | 22.2 µM (inactive) | 39.9 µM (inactive) | 17.8 µM (inactive) | 18.3 µM (inactive) | 38.7 µM (inactive)
CCN(CC)CC(C)(C)C(=O)/C=C/c1ccc(/C=C/C(=O)C(C)(C)CN(CC)CC)cc1 | 1.54 µM (inactive) | 2.09 µM (inactive) | 1.09 µM (active) | 0.206 µM (active) | 1.46 µM (inactive) | – | 0.233 µM (active) | 0.333 µM (active) | 0.0499 µM (active) | 1.03 µM (active) | 0.325 | 0.182 µM (active) | 0.233 µM (active) | 1.34 µM (inactive) | 1.2 µM (inactive) | 0.14 µM (active) | 1.54 µM (inactive) | 1.12 µM (inactive) | 0.263 µM (active) | 1.27 µM (inactive)
CN1CCC(O)(OC(=O)C(c2ccccc2)C2(O)CCCC2)CC1 (stereo not drawn) | > 100 µM (inactive) | > 100 µM (inactive) | > 100 µM (inactive) | > 100 µM (inactive) | > 100 µM (inactive) | > 100 µM (inactive) | > 100 µM (inactive) | > 100 µM (inactive) | > 100 µM (inactive) | > 100 µM (inactive) | > 100 | > 100 µM (inactive) | > 100 µM (inactive) | > 100 µM (inactive) | > 100 µM (inactive) | > 100 µM (inactive) | > 100 µM (inactive) | > 100 µM (inactive) | > 100 µM (inactive) | > 100 µM (inactive)
C[C@@H]1CCC[C@]2(C)O[C@H]2CC[C@@](C)(O)[C@@H]2CC3=C(CO)C(=O)O[C@H]3[C@H]1O2 | > 50 µM (inactive) | > 50 µM (inactive) | > 50 µM (inactive) | > 50 µM (inactive) | > 50 µM (inactive) | > 50 µM (inactive) | > 50 µM (inactive) | > 50 µM (inactive) | > 5 µM (inactive) | > 50 µM (inactive) | > 50 | > 50 µM (inactive) | > 50 µM (inactive) | > 50 µM (inactive) | > 50 µM (inactive) | > 50 µM (inactive) | > 50 µM (inactive) | – | > 50 µM (inactive) | 25.5 µM (inactive)
O=C(O)c1cc2ccccc2c(/N=N/c2ccc(S(=O)(=O)Nc3ccccn3)cc2)c1O | > 100 µM (inactive) | > 100 µM (inactive) | > 100 µM (inactive) | > 100 µM (inactive) | > 100 µM (inactive) | > 100 µM (inactive) | > 100 µM (inactive) | > 100 µM (inactive) | > 100 µM (inactive) | > 100 µM (inactive) | > 100 | > 100 µM (inactive) | > 100 µM (inactive) | > 100 µM (inactive) | > 100 µM (inactive) | > 100 µM (inactive) | > 100 µM (inactive) | > 100 µM (inactive) | – | > 100 µM (inactive)
O=C(NC(Nc1ccc(F)c(Cl)c1)(C(F)(F)F)C(F)(F)F)C(C(F)(F)F)C(F)(F)F | 21.4 µM (inactive) | 52.7 µM (inactive) | 19.8 µM (inactive) | 28.3 µM (inactive) | – | 29 µM (inactive) | 33 µM (inactive) | > 100 µM (inactive) | 15.6 µM (inactive) | 21.9 µM (inactive) | 18.1 | 30.5 µM (inactive) | 23.2 µM (inactive) | 13.5 µM (inactive) | 22.6 µM (inactive) | 15 µM (inactive) | 23.9 µM (inactive) | 19.1 µM (inactive) | 12 µM (inactive) | 13.4 µM (inactive)
Cc1ccc(/C=C/C(=N/NC(=O)N/N=C(/C=C/c2ccc(C)cc2)C(C)C)C(C)C)cc1 | – | – | > 10 µM (inactive) | > 10 µM (inactive) | – | 1.5 µM (inactive) | > 10 µM (inactive) | > 10 µM (inactive) | 4.42 µM (inactive) | > 10 µM (inactive) | > 10 | > 10 µM (inactive) | > 10 µM (inactive) | > 10 µM (inactive) | – | > 10 µM (inactive) | > 10 µM (inactive) | > 10 µM (inactive) | – | –
NCCOc1cccc(C2(N3CCCCC3)CCCCC2)c1 | 16.5 µM (inactive) | > 100 µM (inactive) | > 100 µM (inactive) | 21 µM (inactive) | 20.2 µM (inactive) | 35.9 µM (inactive) | 38.8 µM (inactive) | 19.9 µM (inactive) | 25 µM (inactive) | 16.4 µM (inactive) | 38.9 | 13.3 µM (inactive) | 22 µM (inactive) | > 100 µM (inactive) | 17.5 µM (inactive) | 19.4 µM (inactive) | 41.4 µM (inactive) | 20.1 µM (inactive) | 14.7 µM (inactive) | –
COc1cc(C#CC(=O)OC/C=C/c2ccc3c(c2)OCO3)cc(OC)c1OC | 17.5 µM (inactive) | 27.6 µM (inactive) | 20 µM (inactive) | 25.8 µM (inactive) | 18.8 µM (inactive) | 59.7 µM (inactive) | 19.5 µM (inactive) | 26.2 µM (inactive) | 36.5 µM (inactive) | 24 µM (inactive) | 24.9 | 29.8 µM (inactive) | 12.3 µM (inactive) | 29.2 µM (inactive) | 20.7 µM (inactive) | – | 35.6 µM (inactive) | 20.7 µM (inactive) | 20.1 µM (inactive) | –
CC1(C)OC1CC/C(=C/CBr)CBr (stereo not drawn) | 14.1 µM (inactive) | 19 µM (inactive) | 18.8 µM (inactive) | 15.7 µM (inactive) | – | 17 µM (inactive) | 15 µM (inactive) | 16 µM (inactive) | 4.92 µM (inactive) | 19.8 µM (inactive) | – | 15.4 µM (inactive) | 17 µM (inactive) | 16.9 µM (inactive) | 18.1 µM (inactive) | 16.7 µM (inactive) | 17.5 µM (inactive) | 22.3 µM (inactive) | 10.2 µM (inactive) | 13.8 µM (inactive)
O=C(/C=C(\C(=O)c1cccs1)c1cccs1)c1ccc(C(=O)/C=C(\C(=O)c2cccs2)c2cccs2)cc1 | > 100 µM (inactive) | > 100 µM (inactive) | > 100 µM (inactive) | > 100 µM (inactive) | > 100 µM (inactive) | > 100 µM (inactive) | > 100 µM (inactive) | > 100 µM (inactive) | > 100 µM (inactive) | > 100 µM (inactive) | > 100 | > 100 µM (inactive) | > 100 µM (inactive) | > 100 µM (inactive) | > 100 µM (inactive) | > 100 µM (inactive) | – | – | – | > 100 µM (inactive)
OC1=C2c3ccccc3NC2Oc2cc(F)ccc21 (stereo not drawn) | 15 µM (inactive) | 12.7 µM (inactive) | 16.2 µM (inactive) | 16.1 µM (inactive) | 15.7 µM (inactive) | 16.6 µM (inactive) | 24.9 µM (inactive) | 17.9 µM (inactive) | – | 17.3 µM (inactive) | 15.8 | 16 µM (inactive) | 16.6 µM (inactive) | 18.7 µM (inactive) | – | 13.6 µM (inactive) | 17.9 µM (inactive) | 20.4 µM (inactive) | 16.4 µM (inactive) | 21.7 µM (inactive)
Cc1cc(S(=O)(=O)N=C2NCC(C)(C)CN2)c(S)cc1Cl | 17.2 µM (inactive) | > 100 µM (inactive) | 50.8 µM (inactive) | 43.4 µM (inactive) | 25.3 µM (inactive) | 17.6 µM (inactive) | 42.5 µM (inactive) | 67.6 µM (inactive) | 25.8 µM (inactive) | 31.9 µM (inactive) | 42.7 | 32.1 µM (inactive) | 38 µM (inactive) | 24.1 µM (inactive) | 40.6 µM (inactive) | – | 23.1 µM (inactive) | 44.7 µM (inactive) | 15.5 µM (inactive) | 38.9 µM (inactive)
